This passage reports mutagenic call results from PubChem BioAssay AID1259407 (Chemical Carcinogenesis Research Information System (CCRIS), 2018).

The source made the active and inactive calls. The rule behind the calls is not given here.

This data set concerns CCRIS mutagenicity, Ames/micronucleus/aberration tests. Nature of the data set: CCRIS mutagenicity studies.
[1] abbreviates: Test System: AMES SALMONELLA TYPHIMURIUM, Strain/Indicator: TA98, Metabolic Activation: NONE.
Setting [2] is: Test System: AMES SALMONELLA TYPHIMURIUM, Strain/Indicator: TA100, Metabolic Activation: NONE.
The mark [3] stands for this setting: Test System: AMES SALMONELLA TYPHIMURIUM, Strain/Indicator: TA98, Metabolic Activation: NONE, Method: STANDARD PLATE.
Where [4] appears, read: Test System: AMES SALMONELLA TYPHIMURIUM, Strain/Indicator: TA100, Metabolic Activation: NONE, Method: STANDARD PLATE.
Setting [5] is: Test System: AMES SALMONELLA TYPHIMURIUM, Strain/Indicator: TA98, Metabolic Activation: NONE, Method: PREINCUBATION
The mark [6] stands for this setting: Test System: AMES SALMONELLA TYPHIMURIUM, Strain/Indicator: TA100, Metabolic Activation: NONE, Method: PREINCUBATION
[7] abbreviates: Test System: AMES SALMONELLA TYPHIMURIUM, Strain/Indicator: TA102, Metabolic Activation: NONE, Method: PREINCUBATION

As to `C[N+](C)(C)NCCC(=O)[O-]`, the mutagenic call is, setting by setting: under setting [1], “inactive; negative”; (Test System: AMES SALMONELLA TYPHIMURIUM, Strain/Indicator: TA98, Metabolic Activation: RAT LIVER S-9, AROCLOR 1254) “inactive; negative”; under setting [2], “inactive; negative”; (Test System: AMES SALMONELLA TYPHIMURIUM, Strain/Indicator: TA100, Metabolic Activation: RAT LIVER S-9, AROCLOR 1254) “inactive; negative”.

Take `Cc1ccc(NS(=O)(=O)c2cccc3cccnc23)cc1`: the mutagenic call under setting [3] is “inactive; negative”; the mutagenic call (Test System: AMES SALMONELLA TYPHIMURIUM, Strain/Indicator: TA98, Metabolic Activation: RAT, LIVER, S-9, AROCLOR 1254, Method: STANDARD PLATE) is “inactive; negative”; the mutagenic call under setting [4] was “inactive; negative”; the mutagenic call (Test System: AMES SALMONELLA TYPHIMURIUM, Strain/Indicator: TA100, Metabolic Activation: RAT, LIVER, S-9, AROCLOR 1254, Method: STANDARD PLATE) was “inactive; negative”; the mutagenic call (Test System: AMES SALMONELLA TYPHIMURIUM, Strain/Indicator: TA1535, Metabolic Activation: NONE, Method: STANDARD PLATE) is “inactive; negative”; the mutagenic call (Test System: AMES SALMONELLA TYPHIMURIUM, Strain/Indicator: TA1535, Metabolic Activation: RAT, LIVER, S-9, AROCLOR 1254, Method: STANDARD PLATE) was “inactive; negative”. For the same compound, the mutagenic call is “inactive; negative” (Test System: AMES SALMONELLA TYPHIMURIUM, Strain/Indicator: TA1537, Metabolic Activation: NONE, Method: STANDARD PLATE) and “inactive; negative” (Test System: AMES SALMONELLA TYPHIMURIUM, Strain/Indicator: TA1537, Metabolic Activation: RAT, LIVER, S-9, AROCLOR 1254, Method: STANDARD PLATE).

On to `Cc1cnc2ccccc2n1`, for which the mutagenic call reads like this: under setting [5], “inactive; negative”; (Test System: AMES SALMONELLA TYPHIMURIUM, Strain/Indicator: TA98, Metabolic Activation: RAT, LIVER, S-9, AROCLOR 1254, Method: PREINCUBATION) “inactive; negative”; under setting [6], “inactive; negative”; (Test System: AMES SALMONELLA TYPHIMURIUM, Strain/Indicator: TA100, Metabolic Activation: RAT, LIVER, S-9, AROCLOR 1254, Method: PREINCUBATION) “inactive; negative”; under setting [7], “inactive; negative”; (Test System: AMES SALMONELLA TYPHIMURIUM, Strain/Indicator: TA102, Metabolic Activation: RAT, LIVER, S-9, AROCLOR 1254, Method: PREINCUBATION) “inactive; negative”.

Turning to `O=C(Cc1ccccc1)NC(Cc1ccc(Cl)cc1)C(=O)O` (stereo unspecified), the mutagenic call runs as follows: under setting [1], “inactive; negative”; under setting [2], “active; positive”; (Test System: AMES SALMONELLA TYPHIMURIUM, Strain/Indicator: TA1535, Metabolic Activation: NONE) “inactive; negative”; (Test System: AMES SALMONELLA TYPHIMURIUM, Strain/Indicator: TA1537, Metabolic Activation: NONE) “inactive; negative”; (Test System: E. COLI, Strain/Indicator: AB2462 UVRA, Metabolic Activation: NONE, Method: SPOT TEST) “inactive; negative”.

In the case of `O=[N+]([O-])c1c2c(cc3c1ccc1ccccc13)C=C[C@@H](O)[C@@H]2O`, the mutagenic call is “active; positive” under setting [3] and “inactive; negative” under setting [4].

Consider `NCc1ccc(CN)cc1`, for which the mutagenic call by setting is: (End Point: IN VITRO CHROMOSOMAL ABERRATIONS, Test System: CHL CELLS, Metabolic Activation: NONE) “inactive; negative”; (End Point: IN VITRO CHROMOSOMAL ABERRATIONS, Test System: CHL CELLS, Metabolic Activation: RAT, LIVER, S-9, SODIUM PHENOBARBITAL AND 5,6-BENZOFLAVONE) “inactive; negative”; under setting [5], “inactive; negative”; (Test System: AMES SALMONELLA TYPHIMURIUM, Strain/Indicator: TA98, Metabolic Activation: RAT, LIVER, S-9, PHENOBARBITAL AND BETA-NAPHTHOFLAVONE, Method: PREINCUBATION) “inactive; negative”; under setting [6], “inactive; negative”; (Test System: AMES SALMONELLA TYPHIMURIUM, Strain/Indicator: TA100, Metabolic Activation: RAT, LIVER, S-9, PHENOBARBITAL AND BETA-NAPHTHOFLAVONE, Method: PREINCUBATION) “inactive; negative”. Also, the mutagenic call by setting is: under setting [7], “inactive; negative”; (Test System: AMES SALMONELLA TYPHIMURIUM, Strain/Indicator: TA102, Metabolic Activation: RAT, LIVER, S-9, PHENOBARBITAL AND BETA-NAPHTHOFLAVONE, Method: PREINCUBATION) “inactive; negative”; (Test System: AMES SALMONELLA TYPHIMURIUM, Strain/Indicator: TA1535, Metabolic Activation: NONE, Method: PREINCUBATION) “inactive; negative”; (Test System: AMES SALMONELLA TYPHIMURIUM, Strain/Indicator: TA1535, Metabolic Activation: RAT, LIVER, S-9, PHENOBARBITAL AND BETA-NAPHTHOFLAVONE, Method: PREINCUBATION) “inactive; negative”; (Test System: AMES SALMONELLA TYPHIMURIUM, Strain/Indicator: TA1537, Metabolic Activation: NONE, Method: PREINCUBATION) “inactive; negative”; (Test System: AMES SALMONELLA TYPHIMURIUM, Strain/Indicator: TA1537, Metabolic Activation: RAT, LIVER, S-9, PHENOBARBITAL AND BETA-NAPHTHOFLAVONE, Method: PREINCUBATION) “inactive; negative”. Moreover, the mutagenic call runs as follows: (Test System: E. COLI, Strain/Indicator: WP2UVRA/PKM101, Metabolic Activation: NONE, Method: PREINCUBATION) “inactive; negative”; (Test System: E. COLI, Strain/Indicator: WP2UVRA/PKM101, Metabolic Activation: RAT, LIVER, S-9, PHENOBARBITAL AND BETA-NAPHTHOFLAVONE, Method: PREINCUBATION) “inactive; negative”; (Test System: E. COLI, Strain/Indicator: WP2UVRA/PKM101, Metabolic Activation: RAT, LIVER, S-9, SODIUM PHENOBARBITAL AND 5,6-BENZOFLAVONE, Method: PREINCUBATION) “inactive; negative”; (Test System: E. COLI, Strain/Indicator: WP2UVRA, Metabolic Activation: NONE, Method: PREINCUBATION) “inactive; negative”; (Test System: E. COLI, Strain/Indicator: WP2UVRA, Metabolic Activation: RAT, LIVER, S-9, PHENOBARBITAL AND BETA-NAPHTHOFLAVONE, Method: PREINCUBATION) “inactive; negative”.

Take `O=C(ON(OCc1ccccc1)C(=O)c1ccccc1)c1ccc(Cl)cc1`: the mutagenic call runs as follows: under setting [4], “active; positive”; (Test System: AMES SALMONELLA TYPHIMURIUM, Strain/Indicator: TA100, Metabolic Activation: RAT, S-9, AROCLOR, Method: STANDARD PLATE) “active; positive”.

For the compound `CN1COCN(Cc2cnc(Cl)s2)/C1=N/[N+](=O)[O-]`, the mutagenic call by setting is: (End Point: IN VIVO MICRONUCLEUS, Test System: BONE MARROW POLYCHROMATIC ERYTHROCYTES, Species: RAT, Strain/Sex: WISTAR/FEMALE, Route: ORAL (GAVAGE)) “active; positive”; (End Point: IN VIVO MICRONUCLEUS, Test System: POLYCHROMATIC ERYTHROCYTES FROM COLONIC CRYPT EPITHELIAL CELLS, Species: RAT, Strain/Sex: WISTAR/FEMALE, Route: ORAL (GAVAGE)) “active; positive”.
